Experimental findings from patent publication US8835646B2, “Organic compounds” (Novartis AG, priority 2005, dated 2014) are described below.

Structures are written as SMILES.

Experiment [1] has as its target T1, human aromatase (Homo sapiens, UniProt P11511).
T1 construct: purchased Gentest (Woburn, Mass.)
T1 sequence (P11511 1-503): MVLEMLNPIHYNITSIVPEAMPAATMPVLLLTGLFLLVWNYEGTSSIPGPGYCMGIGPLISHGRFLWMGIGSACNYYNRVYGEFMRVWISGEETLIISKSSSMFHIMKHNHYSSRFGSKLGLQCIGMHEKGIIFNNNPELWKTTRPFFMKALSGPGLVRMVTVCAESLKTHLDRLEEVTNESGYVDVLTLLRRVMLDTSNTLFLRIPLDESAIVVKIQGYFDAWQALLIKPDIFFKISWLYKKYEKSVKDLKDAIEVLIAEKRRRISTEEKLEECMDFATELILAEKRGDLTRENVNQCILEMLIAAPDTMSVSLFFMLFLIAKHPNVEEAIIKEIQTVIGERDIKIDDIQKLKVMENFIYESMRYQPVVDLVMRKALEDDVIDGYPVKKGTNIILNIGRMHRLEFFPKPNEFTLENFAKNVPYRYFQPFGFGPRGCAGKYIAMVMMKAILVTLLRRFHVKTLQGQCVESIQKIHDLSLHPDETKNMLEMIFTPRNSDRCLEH
Kind of experiment: human aromatase assay (Supersomes, DBF substrate, fluorescence). The class given is biochemical. To be noted: 10000 nM. An excerpt:
(§1) Human adrenocortical carcinoma NCl-H295R cell line is obtained from American Type Culture Collection (Manassas, Va.). Insulin/transferrin/selenium (ITS)-A supplement (100×), DMEM/F-12, antibiotic/antimycotic (100×), and fetal calf serum (FCS) are purchased from Gibco (Grand Island, N.Y.). Anti-mouse PVT scintillation proximity assay (SPA) beads and NBS 96-well plates are obtained from Amersham (Piscataway, N.J.) and Corning (Acton, Mass.), respectively. Solid black 96-well flat bottom plates are purchased from Costar (Corning, N.Y.). Aldosterone and angiotensin (Ang II) are purchased from Sigma (St. Louis, Mo.). D-[1,2,6,7-^3H(N)]aldosterone was acquired from PerkinElmer (Boston, Mass.). Nu-serum was a product of BD Biosciences (Franklin Lakes, N.J.). The NADPH regenerating system, dibenzylfluorescein (DBF), and human aromatase Supersomes® are obtained from Gentest (Woburn, Mass.).
To measure aromatase activity, the human aromatase assay is performed in 96-well flat bottom plates according to a published protocol (Stresser et al, 2000) with minor modifications. Briefly, 10 μl of an NADPH regenerating system containing 2.6 mM NADP^+, 6.6 mM glucose 6-phosphate, 6.6 mM MgCl2, and 0.8 U/ml glucose-6-phosphate dehydrogenase in 50 mM potassium phosphate, pH 7.4, is pre-incubated with the test compound at a desired concentration at 30° C. for 10 min in a total volume of 100 μl. Afterwards, 4 pmol of human aromatase, 20 μg of control microsomal protein, and 4 μM DBF in 100 μl of 50 mM potassium phosphate, pH 7.4, is added to each well and incubated at 30° C. for 90 min. The reaction is terminated by the addition of 75 μl of 2 N NaOH to each well. After 2 hr, the product, fluorescein, is measured by a fluorimeter using excitation and emission wavelengths of 485 and 538 nm, respectively.
(§2) Full concentration-response curves of the test compound are performed at least 3 times. The IC50 values are derived using a non-linear least squares curve-fitting program from Microsoft XLfit.

Experiment [2] deals with T2, aldosterone synthase (Homo sapiens, UniProt P19099).
T2 construct: host or cells: NCI-H295R
T2 sequence (P19099 25-503): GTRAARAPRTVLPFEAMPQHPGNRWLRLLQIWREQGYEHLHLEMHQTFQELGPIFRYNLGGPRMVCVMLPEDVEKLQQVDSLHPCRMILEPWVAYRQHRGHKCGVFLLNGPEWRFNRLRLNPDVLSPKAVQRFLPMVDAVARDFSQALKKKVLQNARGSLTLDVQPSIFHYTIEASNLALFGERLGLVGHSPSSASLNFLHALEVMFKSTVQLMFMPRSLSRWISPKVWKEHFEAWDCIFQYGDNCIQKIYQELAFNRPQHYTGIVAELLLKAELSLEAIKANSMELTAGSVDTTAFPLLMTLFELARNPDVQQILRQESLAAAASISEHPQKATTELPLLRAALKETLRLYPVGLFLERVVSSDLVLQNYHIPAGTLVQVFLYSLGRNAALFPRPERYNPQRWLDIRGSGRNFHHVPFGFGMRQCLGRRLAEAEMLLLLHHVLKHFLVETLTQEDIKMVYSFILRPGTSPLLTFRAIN
Kind of experiment: cellular aldosterone production in NCI-H295R cells stimulated with Ang II (RIA/SPA). The experiment is classed as cell-based. To be noted: human adrenocortical carcinoma NCI-H295R cells, 1 μM Ang II, 24 hr.
From the text: as §1
For in vitro measurement of aldosterone activity, human adrenocortical carcinoma NCI-H295R cells are seeded in NBS 96-well plates at a density of 25,000 cells/well in 100 μl of a growth medium containing DMEM/F12 supplemented with 10% FCS, 2.5% Nu-serum, 1 μg ITS/ml, and 1× antibiotic/antimycotic. The medium is changed after culturing for 3 days at 37° C. under an atmosphere of 5% CO2/95% air. On the following day, cells are rinsed with 100 μl of DMEM/F12 and incubated with 100 μl of treatment medium containing 1 μM Ang II and a compound at different concentrations in quadruplicate wells at 37° C. for 24 hr. At the end of incubation, 50 μl of medium is withdrawn from each well for measurement of aldosterone production by an RIA using mouse anti-aldosterone monoclonal antibodies.
Measurement of aldosterone activity can also be performed using a 96-well plate format. Each test sample is incubated with 0.02 μCi of D-[1,2,6,7-^3H(N)]aldosterone and 0.3 μg of anti-aldosterone antibody in phosphate-buffered saline (PBS) containing 0.1% Triton X-100, 0.1% bovine serum albumin, and 12% glycerol in a total volume of 200 μl at room temperature for 1 hr. Anti-mouse PVT SPA beads (50 μl) are then added to each well and incubated overnight at room temperature prior to counting in a Microbeta plate counter. The amount of aldosterone in each sample is calculated by comparing with a standard curve generated using known quantities of the hormone.
as §2

The term inhibition denotes the drop in the measured response relative to a control, in per cent. As usually defined, the IC50 is the concentration at which inhibition is half-maximal.

In experiment [1], `CCC1(c2ccc(C#N)cc2Cl)CCCCc2cncn21` (centres unmarked) [3-Chloro-(5-ethyl-6,7,8,9-tetrahydro-5H-imidazo[1,5-a]azepin-5-yl)benzonitrile] gave an inhibition at 10 µM of 91%. Besides, the IC50 in experiment [2] was determined as 217 nM.

The compound `COc1cc(C#N)ccc1[C@@H]1C[C@@H](Cc2ccc(F)cc2)Cc2cncn21` (relative stereo) [trans-3-Methoxy-4-[7-(4-fluorobenzyl)-5,6,7,8-tetrahydroimidazo[1,5-a]pyridin-5-yl]benzonitrile] displayed an inhibition at 10 µM in experiment [1] of 100%. This compound also gave an IC50 in experiment [2] of 83 nM.

With `COC(=O)C1(c2ccc(C#N)cc2OC(F)(F)F)CCc2cncn21` (centres unmarked) [5-(4-Cyano-2-trifluoromethoxyphenyl)-6,7-dihydro-5H-pyrrolo[1,2-c]imidazole-5-carboxylic acid methyl ester], the inhibition at 10 µM in experiment [1] came to 99%. For the same compound, half-maximal inhibition in experiment [2] (IC50) was put at 2 nM.

In experiment [1], `C=Cc1cc(C2CCc3cncn32)ccc1C#N` (centres unmarked) [4-(6,7-Dihydro-5H-pyrrolo[1,2-c]imidazol-5-yl)-2-vinylbenzonitrile] had an inhibition at 10 µM of 100%. The IC50 in experiment [2] stood at 8 nM.

For `COc1cc(C#N)ccc1C1CCc2cncn21` (centres unmarked) [4-(6,7-Dihydro-5H-pyrrolo[1,2-c]imidazol-5-yl)-3-methoxybenzonitrile], in experiment [1], the inhibition at 10 µM worked out at 100%. Besides, the midpoint of inhibition in experiment [2], the IC50, lay at 18 nM.

Compound `N#Cc1ccc(C2CCCCc3cncn32)c(-c2cccnc2)c1` (centres unmarked) [3-Pyridin-3-yl-4-(6,7,8,9-tetrahydro-5H-imidazo[1,5-a]azepin-5-yl)benzonitrile] returned an inhibition at 10 µM in experiment [1] of 97%. This compound also had an IC50 in experiment [2] of 35 nM.

In turn, `COc1cc(C#N)ccc1C1(C(=O)N(C)Cc2ccc(F)cc2)CCc2cncn21` (centres unmarked) [5-(4-Cyano-2-methoxyphenyl)-6,7-dihydro-5H-pyrrolo[1,2-c]imidazole-5-carboxylic acid (4-fluorobenzyl)methylamide] came in with an inhibition at 10 µM in experiment [1] of 85%. Further, the midpoint of inhibition in experiment [2], the IC50, lay at 57 nM.

For the compound `N#Cc1ccc([C@@H]2C[C@H](Cc3ccc(F)cc3)Cc3cncn32)c(F)c1` (relative stereo) [cis- and trans-3-Fluoro-4-[7-(4-fluorobenzyl)-5,6,7,8-tetrahydroimidazo[1,5-a]pyridin-5-yl]benzonitrile], in experiment [1], 10 µM produced 100% inhibition. In addition, the midpoint of inhibition in experiment [2], the IC50, lay at 7 nM.

`C=CCC1(c2ccc(C#N)cc2Br)CCCCc2cncn21` (centres unmarked) [4-(5-Allyl-6,7,8,9-tetrahydro-5H-imidazo[1,5-a]azepin-5-yl)-3-bromobenzonitrile] came in with an inhibition at 10 µM in experiment [1] of 97%. Half-maximal inhibition in experiment [2] (IC50) required 32 nM.

Take `N#Cc1ccc(C2(C(=O)N3CCCCC3)CCc3cncn32)c(Cl)c1` (centres unmarked) [3-Chloro-4-[5-(piperidine-1-carbonyl)-6,7-dihydro-5H-pyrrolo[1,2-c]imidazol-5-yl]benzonitrile]: the inhibition at 10 µM in experiment [1] was 98%. This compound showed an IC50 in experiment [2] of 135 nM.

Compound `CCCCOC(=O)C1(c2ccc(C#N)cc2OC)CCc2cncn21` (centres unmarked) [5-(4-Cyano-2-methoxyphenyl)-6,7-dihydro-5H-pyrrolo[1,2-c]imidazole-5-carboxylic acid butyl ester] had an inhibition at 10 µM in experiment [1] of 100%. In experiment [2], this compound showed an IC50 of 6 nM.

Turning to `N#Cc1ccc(C2CCc3cncn32)c(N)c1` (centres unmarked) [3-Amino-4-(6,7-dihydro-5H-pyrrolo[1,2-c]imidazol-5-yl)benzonitrile], the inhibition at 10 µM in experiment [1] worked out at 100%. It took 90 nM to reach half-maximal inhibition in experiment [2] (IC50).

In experiment [1], `COC(=O)C1(c2ccc(C#N)cc2Cl)CCc2cncn21` (centres unmarked) [5-(2-Chloro-4-cyanophenyl)-6,7-dihydro-5H-pyrrolo[1,2-c]imidazole-5-carboxylic acid methyl ester] yielded an inhibition at 10 µM of 96%. The 50% inhibitory concentration (IC50) in experiment [2] is 45 nM.

In experiment [1], `CC1CCCC(c2ccc(C#N)cc2-c2ccc(F)cc2)n2cncc21` (centres unmarked) [4′-Fluoro-6-(9-methyl-6,7,8,9-tetrahydro-5H-imidazo[1,5-a]azepin-5-yl)biphenyl-3-carbonitrile] returned an inhibition at 10 µM of 91%. In experiment [2], this compound returned a half-inhibitory concentration (IC50) of 2 nM.

Turning to `Fc1ccc(C2CCCCc3cncn32)c(Br)c1` (centres unmarked) [5-(2-Bromo-4-fluorophenyl)-6,7,8,9-tetrahydro-5H-imidazo[1,5-a]azepine], the inhibition at 10 µM in experiment [1] is 92%. For the same compound, in experiment [2], the IC50 amounted to 65 nM.

`Fc1ccc(C2CCCc3cncn32)c(-c2ccsc2)c1` (centres unmarked) [5-(4-Fluoro-2-thiophen-3-yl-phenyl)-5,6,7,8-tetrahydroimidazo[1,5-a]pyridine] gave an inhibition at 10 µM in experiment [1] of 88%. Also, the IC50 in experiment [2] is 93 nM.

As for `COc1ccc(C2CCc3cncn32)cc1F` (centres unmarked) [5-(3-fluoro-4-methoxyphenyl)-6,7-dihydro-5H-pyrrolo[1,2-c]imidazole], in experiment [1], the inhibition at 10 µM amounted to 100%. Moreover, the midpoint of inhibition in experiment [2], the IC50, lay at 159 nM.

For `N#Cc1ccc(C2CCCCc3cncn32)c(Cl)c1` (centres unmarked) [3-Chloro-4-(6,7,8,9-tetrahydro-5H-imidazo[1,5-a]azepin-5-yl)benzonitrile], in experiment [1], the inhibition at 10 µM turned out to be 100%. Also, in experiment [2], half-maximal inhibition (IC50) required 48 nM.

On to `C=C1CC(c2ccc(C#N)cc2F)n2cncc21` (centres unmarked) [3-Fluoro-4-(7-methylene-6,7-dihydro-5H-pyrrolo[1,2-c]imidazol-5-yl)benzonitrile], for which the inhibition at 10 µM in experiment [1] was 95%. Further, inhibition in experiment [2] was half-maximal at 4 nM (IC50).
